Assay results published in patent US20180153168A1, “A PRIMER FOR PESTICIDES” (PANGAEA AGROCHEMICALS LIMITED, priority 2015, published 2018).
Where two headings read alike, the source gives them in different places.

What was measured:
[1] = tested on: glyphosate resistant strain of Italian ryegrass; test: Control of glyphosate resistant Italian ryegrass, piperonyl butoxide pre-treatment then glyphosate (Western Australia); type: in vivo; settings: glyphosate without piperonyl butoxide; 8 replicated trials; FIG. 1
plant crop = settings: optimised dose rate
Description: Preferably, the time delay is from 1 to 24 hours, preferably from 2 to 8 hours. However, the time delay required varies with temperature and dose rate. […] (these time delays assume an optimised dose rate).

pollen beetle = settings: with insecticides
[2] = tested on: clodinafop resistant strains of blackgrass
Description: Further experiments were carried out using clodinafop resistant strains of blackgrass.
Daytime temperature of 11° C. Night time temperature of 8° C.

plants = settings: applied alone, in the absence of any active ingredients; cited from earlier work
white fly = settings: with insecticides
[3] = piperonyl butoxide 320 grams per ha then clodinafop 250 g ai/ha, daytime 11° C., night 8° C., FIG. 9

**Q.** For `O=C(O)CNCP(=O)(O)O` [glyphosate], which level of control [1] is on record?
**A.** The level of control was “minimal”.

**Q.** What does the source list for `CCCCOCCOCCOCc1cc2c(cc1CCC)OCO2` [piperonyl butoxide]?
**A.** optimum time delay (plant crop; 11° C.): 8 h; optimum time delay (plant crop; 15° C.): 4 h; optimum time delay (plant crop; 25° C.): 2.5 h; optimum delay for application (pollen beetle): approximately 1 hour; optimum delay ([2]; early autumn trials, ambient temperature of the order of 18° C.): 2 to 8 h; delays showing high levels of control [2, 3]: 8 to 16 h; optimum delay for efficacy [2, 3]: approximately 8 hours; toxicity to plants (plants): not detectable; optimum delay for application (white fly): ~8 h
